# Patent publication US20240238242A1, “EGCG buccal tablet and use thereof” (priority 2023, published 2024)
# Where “and” joins values, the source holds several entries; their conditions need not be identical. Equal values may be shown once. Read-outs that look alike come from different tables or passages of the source.
# Tested on: Influenza A virus neuraminidase inhibitor-resistant strain (ZX-1109)
# Format: cell-based
# Settings: for average inactivation efficiency against virus: ZX1109 virus, three experiments; for residual virus titer of EGCG+virus group (Karber method) / inactivation efficiency against the virus: ZX-1109 virus; for inactivation efficiency against the virus: single experiment
smiles,measurement,setting,value
"O=C(O[C@@H]1Cc2c(O)cc(O)cc2O[C@@H]1c1cc(O)c(O)c(O)c1)c1cc(O)c(O)c(O)c1 [EGCG, Epigallocatechin gallate]",CPE test (virus replication in the cell wells),"1 mM EGCG + ZX-1109 virus, 1 minute, third experiment, dilution factor 10^6, wells 1-10",− and +
same,CPE test (virus replication in the cell wells),"1 mM EGCG + ZX-1109 virus, 1 minute, third experiment, dilution factor 10^7, wells 1-10",−
same,CPE test (virus replication in the cell wells),"1 mM EGCG + ZX-1109 virus, 1 minute, third experiment, dilution factor 10^8, wells 1-10",−
same,CPE test (virus replication in the cell wells),"1 mM EGCG + ZX-1109 virus, 5 minute, first experiment, dilution factor 10^2, wells 1-10",+
same,CPE test (virus replication in the cell wells),"1 mM EGCG + ZX-1109 virus, 5 minute, first experiment, dilution factor 10^3, wells 1-10",+
same,CPE test (virus replication in the cell wells),"1 mM EGCG + ZX-1109 virus, 5 minute, first experiment, dilution factor 10^4, wells 1-10",+
same,CPE test (virus replication in the cell wells),"1 mM EGCG + ZX-1109 virus, 5 minute, first experiment, dilution factor 10^5, wells 1-10",+ and −
same,CPE test (virus replication in the cell wells),"1 mM EGCG + ZX-1109 virus, 5 minute, first experiment, dilution factor 10^6, wells 1-10",− and +
same,CPE test (virus replication in the cell wells),"1 mM EGCG + ZX-1109 virus, 5 minute, first experiment, dilution factor 10^7, wells 1-10",− and +
same,CPE test (virus replication in the cell wells),"1 mM EGCG + ZX-1109 virus, 5 minute, first experiment, dilution factor 10^8, wells 1-10",+ and −
same,CPE test (virus replication in the cell wells),"1 mM EGCG + ZX-1109 virus, 5 minute, second experiment, dilution factor 10^2, wells 1-10",+
same,CPE test (virus replication in the cell wells),"1 mM EGCG + ZX-1109 virus, 5 minute, second experiment, dilution factor 10^3, wells 1-10",+
same,CPE test (virus replication in the cell wells),"1 mM EGCG + ZX-1109 virus, 5 minute, second experiment, dilution factor 10^4, wells 1-10",+
same,CPE test (virus replication in the cell wells),"1 mM EGCG + ZX-1109 virus, 5 minute, second experiment, dilution factor 10^5, wells 1-10",+ and −
same,CPE test (virus replication in the cell wells),"1 mM EGCG + ZX-1109 virus, 5 minute, second experiment, dilution factor 10^6, wells 1-10",− and +
same,CPE test (virus replication in the cell wells),"1 mM EGCG + ZX-1109 virus, 5 minute, second experiment, dilution factor 10^7, wells 1-10",− and +
same,CPE test (virus replication in the cell wells),"1 mM EGCG + ZX-1109 virus, 5 minute, second experiment, dilution factor 10^8, wells 1-10",− and +
same,CPE test per cell well,"1 mM EGCG + ZX-1109 virus, 5 minute, third experiment, dilution factor 10^2, wells 1-10",+
same,CPE test per cell well,"1 mM EGCG + ZX-1109 virus, 5 minute, third experiment, dilution factor 10^3, wells 1-10",+
same,CPE test per cell well,"1 mM EGCG + ZX-1109 virus, 5 minute, third experiment, dilution factor 10^4, wells 1-10",+
same,CPE test per cell well,"1 mM EGCG + ZX-1109 virus, 5 minute, third experiment, dilution factor 10^5, wells 1-10",− and +
same,CPE test per cell well,"1 mM EGCG + ZX-1109 virus, 5 minute, third experiment, dilution factor 10^6, wells 1-10",+ and −
same,CPE test per cell well,"1 mM EGCG + ZX-1109 virus, 5 minute, third experiment, dilution factor 10^7, wells 1-10",− and +
same,CPE test per cell well,"1 mM EGCG + ZX-1109 virus, 5 minute, third experiment, dilution factor 10^8, wells 1-10",+ and −
same,average inactivation efficiency against virus,"1 mM EGCG, 1 minute",89.97%
same,average inactivation efficiency against virus,"1 mM EGCG, 5 minutes",97.59%
same,residual virus titer of EGCG+virus group (Karber method),"1 mM EGCG, 1 minute",10^5 TCID50/50 μL
same,inactivation efficiency against the virus,"1 mM EGCG, 1 minute",93.69% and 92.06% and 84.15%
same,residual virus titer of EGCG+virus group (Karber method),"1 mM EGCG, 5 minutes",10^6 TCID50/50 μL
same,inactivation efficiency against the virus,"1 mM EGCG, 5 minutes",96.02% and 98.74% and 98.00%
same,CPE test per cell well,"5 mM EGCG + ZX1109 virus, 1 minute, second experiment, dilution factor 10^3, wells 1-10",+
same,CPE test per cell well,"5 mM EGCG + ZX1109 virus, 1 minute, second experiment, dilution factor 10^4, wells 1-10",+ and −
same,CPE test per cell well,"5 mM EGCG + ZX1109 virus, 1 minute, second experiment, dilution factor 10^5, wells 1-10",− and +
same,CPE test per cell well,"5 mM EGCG + ZX1109 virus, 1 minute, second experiment, dilution factor 10^6, wells 1-10",−
same,CPE test per cell well,"5 mM EGCG + ZX1109 virus, 1 minute, second experiment, dilution factor 10^7, wells 1-10",−
same,CPE test per cell well,"5 mM EGCG + ZX1109 virus, 1 minute, second experiment, dilution factor 10^8, wells 1-10",−
same,CPE test per cell well,"5 mM EGCG + ZX-1109 virus, 1 minute, first experiment, dilution factor 10^2, wells 1-10",+
same,CPE test per cell well,"5 mM EGCG + ZX-1109 virus, 1 minute, first experiment, dilution factor 10^3, wells 1-10",+
same,CPE test per cell well,"5 mM EGCG + ZX-1109 virus, 1 minute, first experiment, dilution factor 10^4, wells 1-10",+ and −
same,CPE test per cell well,"5 mM EGCG + ZX-1109 virus, 1 minute, first experiment, dilution factor 10^5, wells 1-10",+ and −
same,CPE test per cell well,"5 mM EGCG + ZX-1109 virus, 1 minute, first experiment, dilution factor 10^6, wells 1-10",−
same,CPE test per cell well,"5 mM EGCG + ZX-1109 virus, 1 minute, first experiment, dilution factor 10^7, wells 1-10",−
same,CPE test per cell well,"5 mM EGCG + ZX-1109 virus, 1 minute, first experiment, dilution factor 10^8, wells 1-10",−
same,CPE test (virus replication in the cell wells),"5 mM EGCG + ZX-1109 virus, 1 minute, third experiment, dilution factor 10^2, wells 1-10",+
same,CPE test (virus replication in the cell wells),"5 mM EGCG + ZX-1109 virus, 1 minute, third experiment, dilution factor 10^3, wells 1-10",+
same,CPE test (virus replication in the cell wells),"5 mM EGCG + ZX-1109 virus, 1 minute, third experiment, dilution factor 10^4, wells 1-10",+ and −
same,CPE test (virus replication in the cell wells),"5 mM EGCG + ZX-1109 virus, 1 minute, third experiment, dilution factor 10^5, wells 1-10",−
same,CPE test (virus replication in the cell wells),"5 mM EGCG + ZX-1109 virus, 1 minute, third experiment, dilution factor 10^6, wells 1-10",−
same,CPE test (virus replication in the cell wells),"5 mM EGCG + ZX-1109 virus, 1 minute, third experiment, dilution factor 10^7, wells 1-10",−
same,CPE test (virus replication in the cell wells),"5 mM EGCG + ZX-1109 virus, 1 minute, third experiment, dilution factor 10^8, wells 1-10",−
same,CPE test (virus replication in the cell wells),"5 mM EGCG + ZX-1109 virus, 5 minute, first experiment, dilution factor 10^3, wells 1-10",+
same,CPE test (virus replication in the cell wells),"5 mM EGCG + ZX-1109 virus, 5 minute, first experiment, dilution factor 10^4, wells 1-10",+ and −
same,CPE test (virus replication in the cell wells),"5 mM EGCG + ZX-1109 virus, 5 minute, first experiment, dilution factor 10^5, wells 1-10",− and +
same,CPE test (virus replication in the cell wells),"5 mM EGCG + ZX-1109 virus, 5 minute, first experiment, dilution factor 10^6, wells 1-10",− and +
same,CPE test (virus replication in the cell wells),"5 mM EGCG + ZX-1109 virus, 5 minute, first experiment, dilution factor 10^7, wells 1-10",− and +
same,CPE test (virus replication in the cell wells),"5 mM EGCG + ZX-1109 virus, 5 minute, first experiment, dilution factor 10^8, wells 1-10",−
same,CPE test (virus replication in the cell wells),"5 mM EGCG + ZX-1109 virus, 5 minute, second experiment, dilution factor 10^3, wells 1-10",+
same,CPE test (virus replication in the cell wells),"5 mM EGCG + ZX-1109 virus, 5 minute, second experiment, dilution factor 10^4, wells 1-10",− and +
same,CPE test (virus replication in the cell wells),"5 mM EGCG + ZX-1109 virus, 5 minute, second experiment, dilution factor 10^5, wells 1-10",− and +
same,CPE test (virus replication in the cell wells),"5 mM EGCG + ZX-1109 virus, 5 minute, second experiment, dilution factor 10^6, wells 1-10",−
same,CPE test (virus replication in the cell wells),"5 mM EGCG + ZX-1109 virus, 5 minute, second experiment, dilution factor 10^7, wells 1-10",−
same,CPE test (virus replication in the cell wells),"5 mM EGCG + ZX-1109 virus, 5 minute, second experiment, dilution factor 10^8, wells 1-10",−
same,CPE test per cell well,"5 mM EGCG + ZX-1109 virus, 5 minute, third experiment, dilution factor 10^3, wells 1-10",+
same,CPE test per cell well,"5 mM EGCG + ZX-1109 virus, 5 minute, third experiment, dilution factor 10^4, wells 1-10",− and +
same,CPE test per cell well,"5 mM EGCG + ZX-1109 virus, 5 minute, third experiment, dilution factor 10^5, wells 1-10",−
same,CPE test per cell well,"5 mM EGCG + ZX-1109 virus, 5 minute, third experiment, dilution factor 10^6, wells 1-10",−
same,CPE test per cell well,"5 mM EGCG + ZX-1109 virus, 5 minute, third experiment, dilution factor 10^7, wells 1-10",−
same,CPE test per cell well,"5 mM EGCG + ZX-1109 virus, 5 minute, third experiment, dilution factor 10^8, wells 1-10",−
same,average inactivation efficiency against virus,"5 mM EGCG, 1 minute",93.73%
same,average inactivation efficiency against virus,"5 mM EGCG, 5 minutes",99.86%
same,inactivation efficiency against the virus,"5 mM EGCG, 1 minute",90.00% and 93.69% and 97.49%
same,inactivation efficiency against the virus,"5 mM EGCG, 5 minutes",99.60% and 99.99%
